Format in all cases: cell-based
The nature of data set [1]: Cell toxicity in HIV-1 infected CEM-GXR cultures (forward/side scatter). To be noted: human, HIV-1NL4-3-infected CEM-GXR cells (CD4+ T-lymphocyte line), Day 4. How it is done:
(§1) CEM-GXR cells are an immortalized CD4+ T-lymphocyte line engineered that naturally express the HIV-1 coreceptor CXCR4 and have been further engineered to express the HIV-1 co-receptor CCR5 and a Tat-driven LTR-GFP expression cassette. As such, intracellular GFP expression indicates HIV-1 infection. Cultures of 10^5 CEM-GXR cells were seeded into 96-well plates with RPMI-1640 media (Sigma) supplemented with penicillin/streptomycin plus 20% fetal calf serum (R20+), infected with HIV-1 at a multiplicity of infection of 0.03 (to achieve 3% infected cells on Day 2), and incubated at 37°C and 5% CO2. 24 hours later, cells were pelleted at 750 g and resuspended in R20+ containing compound or 0.1% DMSO. […] Cells were then incubated at 37°C and 5% CO2 for an additional 72 h. 5,000 cells from each culture were measured for cell toxicity and GFP expression by flow cytometry. Flow cytometry data were analyzed using FlowJo v. 8.8.7 software (FlowJo LLC, Ashland, OR). […] Background GFP expression in uninfected cultures was set at 0.05% GFP-positive cells. For each experiment, all data points were obtained in triplicate. All data are reported as the mean ± s.e.m. from at least 3 independent experiments performed with different virus stocks and/or performed on different days. However, all experiments that compare HIV-1NL4-3 and mutant HIV-1 were performed in parallel. EC50 and CC50 values for each compound were calculated from at least four concentrations. Statistical analyses were performed using Student’s unpaired t test, with a p value < 0.05 plus a Bonferroni correction to adjust for multiple comparisons considered significant.
To assess the effects of these eight compounds on cell viability and HIV-1 replication, we infected a GFP-reporter CEM CD4+ T cell line (CEM-GXR) with the NL4-3 strain of HIV-1 (HIV-1NL4-3). Briefly, cells were infected with HIV-1NL4-3 at a multiplicity of infection of 0.03 (Day 0), followed by removal of HIV-1 and addition of compound (or 0.1% DMSO vehicle control) 24 hours later (Day 1) and incubation for an additional 72 hours to allow HIV-1 spread (Days 2–4). On Days 2 and/or 4, the percent HIV-1 infected (i.e., GFP-expressing) cells was measured by flow cytometry. Cell viability was assessed by measuring the percentage of cells displaying normal forward- and side-scatter parameters in drug-treated, HIV-1 infected cultures compared to 0.1% DMSO-treated, HIV-1 infected control cultures. […] HIV-1NL4-3 replication was unaffected by the presence of 0.1% DMSO vehicle control (Fig. 2B).

The nature of data set [2]: PBMC cytotoxicity (ViaCount Assay). To be noted: human, all assessed concentrations, read-out: PBMC viability relative to PBMCs in 0.1% DMSO. The protocol: Cytotoxicity was determined by ViaCount Assay (Millipore). Briefly, Day 3 PHA-activated PBMCs (3*10^5) were cultured in R10+ supplemented with 100 units/mL human IL-2 in the presence of 0.1% DMSO or compounds at defined concentrations. At Day 5, 15 μL of each PBMC culture was mixed with Guava ViaCount Reagent at a 1:10 dilution. Data were collected using a Guava EasyCyte HT Flow Cytometer (Millipore).

The subject of data set [3] is HIV-1Δvpu. The data set is described as follows: HIV-1Δvpu replication in CEM-GXR cells. To be noted: for fold less effective at inhibiting HIV-1Δvpu compared to HIV-1NL4-3: 75 μM, CEM-GXR cells; for EC50: Human immunodeficiency virus 1, CEM-GXR, 96 h, read-out: EC50 HIV-1Δvpu. The protocol: (§2) HIV-1Δvpu was constructed by digesting plasmid p210-13 3’ Δ-vpu with EcoRI and NheI enzymes. The resulting DNA fragment was then ligated into wild-type pNL4-3 plasmid digested with the same enzymes. HIV-1Δvpu and HIV-1NL4-3 viral stocks were prepared by transfection of HEK-293T cells, as previously described. Patient plasma-HIV-1 RNA sequences were analyzed for resistance mutations using the HIV Drug Resistance Database Genotype Resistance Interpretation Algorithm (hivdb.stanford.edu). Recombinant HIV-1NL4-3 expressing patient-derived HIV-1 sequences harboring resistance mutations to protease and reverse transcriptase inhibitors (HIV-1PR+RT), reverse transcriptase inhibitors (HIV-1RT), and integrase inhibitors (HIV-1INT) were generated by homologous recombination following co-transfection as reported.
as §1
(§3) To investigate the mechanisms by which ixoratannin A-2 and boldine may block HIV-1 replication, we used a previously-reported HIV-1NL4-3 strain lacking the Vpu coding region (HIV-1Δvpu). We also constructed recombinant HIV-1NL4-3 strains harboring protease, reverse transcriptase, and/or integrase sequences of HIV-1 strains from patients who had developed resistance to the protease inhibitor Indinavir (IND), the non-nucleoside reverse transcriptase inhibitor Efavirenz (EFV), and/or the integrase inhibitor Raltegravir (RAL) (denoted HIV-1PR+RT, HIV-1RT, and HIV-1INT, respectively). Re-sequencing of the recombinant viruses confirmed the presence of multiple mutations known to confer resistance to IND, EFV, and/or RAL (Table 2).

Data set [4] deals with HIV-1PR+RT. Kind of data set: HIV-1PR+RT replication in CEM-GXR cells. To be noted: for HIV-1PR+RT replication fold higher than HIV-1NL4-3: 75 μM; for EC50: Human immunodeficiency virus 1, CEM-GXR, 96 h, read-out: EC50 HIV-1PR+RT. The protocol:
as §2, §1, §3

The subject of data set [5] is HIV-1INT. Kind of data set: HIV-1INT replication in CEM-GXR cells. To be noted: for EC50: Human immunodeficiency virus 1, CEM-GXR, 96 h, read-out: EC50 HIV-1INT. The protocol: as §2, §1, §3
The mark [6] stands for this setting: concentrations up to 75 or 100 μM, CEM-GXR cells.

Structures are written as SMILES. Where two headings read alike, the source gives them in different places. Where only a bound is given, the exact number is not on record here.

The text below walks through data of publication PMC4382154, “Screening of the Pan-African Natural Product Library Identifies Ixoratannin A-2 and Boldine as Novel HIV-1 Inhibitors” (PLoS ONE, 2015).

Compound `Oc1cc(O)c2c(c1)OC1(c3ccc(O)c(O)c3)Oc3c4c(c5c(c3C2C1O)OC1(c2ccc(O)c(O)c2)Oc2cc(O)cc(O)c2C5C1O)OC(c1ccc(O)c(O)c1)C(O)C4` (stereo not shown) [ixoratannin A-2] came in with a CC50 at 72 h in data set [1] of 57.5 µM. The viability in data set [2] (PHA-activated PBMCs) is more than 85%. Moreover, the “fold less effective at inhibiting HIV-1Δvpu compared to HIV-1NL4-3” value in data set [3] was found to be 1.4 fold. Moreover, the 50% effective concentration (EC50) turned out to be 52 µM in data set [3], 36.4 µM in data set [4] and 38.4 µM in data set [5]. Also, the “HIV-1PR+RT replication fold higher than HIV-1NL4-3” value in data set [4] (CEM-GXR cells) is 1.5 fold. Further, the “HIV-1INT replication fold higher than HIV-1NL4-3” value in data set [5] (75 μM, CEM-GXR cells) stood at 1.5 fold.

Turning to `COc1cc2c(cc1O)C[C@H]1c3c(cc(O)c(OC)c3-2)CCN1C` [boldine], the CC50 at 72 h in data set [1] was more than 100 µM. In addition, the viability in data set [2] was more than 85%. Further, the “fold less effective at inhibiting HIV-1Δvpu compared to HIV-1NL4-3” value in data set [3] amounted to 1.3 fold. In addition, the EC50 in data set [3], in data set [4] and in data set [5] was more than 100 µM each time. For the same compound, the “HIV-1PR+RT replication fold greater vs. HIV-1NL4-3” value in data set [4] (25 μM, CEM-GXR cells) was determined as 1.4 fold. Also, in data set [4] (CEM-GXR cells), the “HIV-1PR+RT replication fold higher than HIV-1NL4-3” value is reported as 1.5 fold. Besides, the “HIV-1PR+RT replication fold increased vs. HIV-1NL4-3” value in data set [4] (concentration not stated) came to 1.4 fold. In addition, the “inhibition of HIV-1PR+RT” value in data set [4] (setting [6]) is on record as less than 50%. Moreover, the “inhibition of HIV-1INT” value in data set [5] (setting [6]) was less than 50%.
